Laboratory results: patent US20230203029A1 (priority 2020, published 2023)

Assays:
[1] = molecular target: T1, Ba/F3 Pro B-cell line expressing BCR-human AXL kinase domain fusion protein (Homo sapiens, UniProt P30530); test: Assay 5 Ba/F3 cell survival assay, BCR-Axl; assay type: cell-based; details: read-out: BCR-Axl Ba/F3 IC50, 48 h, CellTiter-Glo
T1 construct: P11274 (Breakpoint cluster region protein)
T1 sequence (P30530 536-807 limits assumed): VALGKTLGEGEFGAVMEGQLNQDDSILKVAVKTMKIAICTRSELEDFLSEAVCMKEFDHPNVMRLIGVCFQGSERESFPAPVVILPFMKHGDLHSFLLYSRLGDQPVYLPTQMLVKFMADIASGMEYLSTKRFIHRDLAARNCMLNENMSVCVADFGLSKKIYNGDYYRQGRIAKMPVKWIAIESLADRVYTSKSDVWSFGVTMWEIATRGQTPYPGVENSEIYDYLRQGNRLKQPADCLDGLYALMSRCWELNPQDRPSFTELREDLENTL
Protocol: (§1) Assay 5—Ba/F3 Cell Survival Assays.
(§2) The inhibitory potencies of compounds were assessed in a Ba/F3 cell survival assay, using the Ba/F3 Pro B-cell line, recombinantly expressing a BCR-human AXL kinase domain fusion protein (pACD320/AXL, Advanced Cellular Dynamics Inc), TEL-human MERTK fusion domain (pACD1000/MERTK, Advanced Cellular Dynamics Inc), TEL-human Tyro3 fusion domain (pACD1000/TYRO3, Advanced Cellular Dynamics Inc), or control TEL-none (ACD320, Advanced Cellular Dynamics Inc) BRC-none constructs (ACD1000, Advanced Cellular Dynamics Inc). 10 ng/mL recombinant murine IL3 (R&D, 403-ML-010) was included in the media when propagating negative control TEL-none or BCR-none lines only. […] The final assay DMSO concentration was 0.25%. Compound incubations were conducted for 48 h at 37° C./5% CO2, after which cell plate was equilibrated at room temperature for 20 minutes prior to assessing viability. 15 μl of Promega CellTiter-Glo reagent (G7572) was added to each well for 2 min on an orbital shaker to induce cell lysis.
(§3) The plate was then equilibrated for 5 min at room temperature and luminescence read on a BMG Pherastar FSX using the LUM plus optic module. […] Competition curves were then fit to a 4 parameter logistic equation including a variable slope factor to determine the IC50 (compound concentration causing a half-maximal inhibition of cell survival).

[2] = molecular target: T2, Ba/F3 Pro B-cell line expressing TEL-human MERTK fusion domain (Homo sapiens, UniProt Q12866); assay type: cell-based; details: cell survival, 48 h, CellTiter-Glo; read-out: TEL-MERTK Ba/F3 IC50
T2 sequence (Q12866 587-858 limits assumed): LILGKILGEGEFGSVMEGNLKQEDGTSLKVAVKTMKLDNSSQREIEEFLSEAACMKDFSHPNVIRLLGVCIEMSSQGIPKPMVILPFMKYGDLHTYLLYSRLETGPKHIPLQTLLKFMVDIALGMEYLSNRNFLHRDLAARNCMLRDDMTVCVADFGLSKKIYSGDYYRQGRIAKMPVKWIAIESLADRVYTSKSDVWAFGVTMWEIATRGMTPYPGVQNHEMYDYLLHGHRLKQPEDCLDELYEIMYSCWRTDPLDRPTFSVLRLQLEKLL
Protocol: as §1, §2, §3

[3] = molecular target: T3, human MERTK cytoplasmic domain (Homo sapiens, UniProt Q12866); test: biochemical; details: 30 uM ATP; read-out: Assay 1a Mer IC50 30 uM ATP
T3 construct: human MERTK cytoplasmic domain (Carna Biosciences 08-108); purchased Carna Biosciences 08-108
T3 sequence (Q12866 527-999): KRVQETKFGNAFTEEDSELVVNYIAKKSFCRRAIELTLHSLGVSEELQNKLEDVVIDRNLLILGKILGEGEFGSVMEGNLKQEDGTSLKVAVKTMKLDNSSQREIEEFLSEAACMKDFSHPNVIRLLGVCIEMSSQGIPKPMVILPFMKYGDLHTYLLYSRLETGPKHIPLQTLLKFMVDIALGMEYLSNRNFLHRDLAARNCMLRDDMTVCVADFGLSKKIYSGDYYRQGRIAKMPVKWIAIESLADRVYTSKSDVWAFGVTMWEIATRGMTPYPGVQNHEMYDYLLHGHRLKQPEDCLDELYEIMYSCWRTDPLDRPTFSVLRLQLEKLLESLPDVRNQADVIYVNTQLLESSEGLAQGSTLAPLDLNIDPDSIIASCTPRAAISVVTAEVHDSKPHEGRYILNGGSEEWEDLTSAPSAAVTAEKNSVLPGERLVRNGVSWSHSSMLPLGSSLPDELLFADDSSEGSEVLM
Protocol: Assay 1a—MERTK HTRF KinEASE-TK Assay
The enzymatic reaction was carried out for 30 min at room temperature. 10 μL TK Antibody-Cryptate/Streptavidin-XL665 (Cisbio 610SAXLG) was then added for 60 min, including EDTA containing detection buffer (Cisbio 62SDBRDF) to stop the reaction.

[4] = molecular target: T4, human AXL cytoplasmic domain (Homo sapiens, UniProt P30530); test: Assay 1b AXL HTRF KinEASE-TK assay; assay type: biochemical
T4 construct: human AXL cytoplasmic domain (Thermo Fisher A31515); purchased Thermo Fisher A31515
T4 sequence (P30530 473-894 limits assumed): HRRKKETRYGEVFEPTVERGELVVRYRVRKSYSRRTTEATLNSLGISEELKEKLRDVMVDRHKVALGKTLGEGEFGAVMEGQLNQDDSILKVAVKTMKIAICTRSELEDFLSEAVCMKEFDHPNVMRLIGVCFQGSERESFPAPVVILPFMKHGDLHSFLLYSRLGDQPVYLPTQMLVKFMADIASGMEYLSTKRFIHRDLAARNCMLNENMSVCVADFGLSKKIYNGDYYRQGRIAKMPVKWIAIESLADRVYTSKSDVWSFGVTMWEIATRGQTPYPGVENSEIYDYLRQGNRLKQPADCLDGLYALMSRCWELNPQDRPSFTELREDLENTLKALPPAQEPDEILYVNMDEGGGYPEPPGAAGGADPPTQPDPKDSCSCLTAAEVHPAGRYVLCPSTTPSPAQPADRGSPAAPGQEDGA
Protocol: Assay 1b—AXL HTRF KinEASE-TK Assay
Compound inhibition of human AXL cytoplasmic domain (Thermo Fisher A31515) enzymatic activity was tested via the HTRF KinEASE-tyrosine kinase (TK) kit (Cisbio 62TK0PEC). Experiments were performed in 20 μl enzymatic buffer (Cisbio 62EZBFDD) supplemented with 5 mM MgCl2, 1 mM MnCl2, 1 mM DTT, 50 nM SEB (Cisbio, 61SEBALB), with 5 nM of AXL and the test compounds of interest. […] The enzymatic reaction was carried out for 30 min at room temperature. 10 μL TK Antibody-Cryptate/Streptavidin-XL665 (Cisbio 610SAXLG) was then added for 60 min, including EDTA containing detection buffer (Cisbio 62SDBRDF) to stop the reaction. The plate was read on a BMG Pherastar FSX using a HTRF 337/620/665 optical module to excite the terbium donor at 337 nm, and record donor emission at 620 nm and acceptor fluorophore emission at 665 nm. From this the FRET ratio (acceptor 665 nm/donor 620 nm) for each data point was calculated. […] Competition curves were then fit to a 4 parameter logistic equation including a variable slope factor to determine the IC50 (compound concentration that inhibits 50% of AXL activity).

[5] = molecular target: T5, Ba/F3 Pro B-cell line expressing TEL-human Tyro3 fusion domain (Homo sapiens, UniProt Q06418); assay type: cell-based; details: cell survival, 48 h, CellTiter-Glo
T5 sequence (Q06418 518-790 limits assumed): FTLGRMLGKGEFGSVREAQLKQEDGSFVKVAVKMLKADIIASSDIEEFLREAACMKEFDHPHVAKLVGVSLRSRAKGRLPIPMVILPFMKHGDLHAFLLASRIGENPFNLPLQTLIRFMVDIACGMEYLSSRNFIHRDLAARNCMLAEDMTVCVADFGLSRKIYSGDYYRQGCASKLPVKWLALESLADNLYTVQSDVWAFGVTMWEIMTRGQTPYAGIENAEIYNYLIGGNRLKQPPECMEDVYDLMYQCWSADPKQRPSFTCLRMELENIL
Protocol: as §1
as §2, with “only. Cells were maintained in RMPI 1640 (Corning 15-040-CV) culture media containing 10% heat inactivated semi-synthetic FBS (RMBIO FGR-BBT), 2 mM L-Glutamine (Sigma, G7513), 100 IU/mL Penicillin-[…] Streptomycin (Sigma, P4333), and 500 ng/mL Puromycin (Sigma, P8833). Experiments were performed in 50 μl growth media, including the test compounds of interest, and dispensing 5000 cells/well in logarithmic-phase growth into a 384 well white Optiplate (Perkin Elmer 6007299).” for “only.”
The plate was then equilibrated for 5 min at room temperature and luminescence read on a BMG Pherastar FSX using the LUM plus optic module. Data were normalised to measurements in the absence of competing compound (0% inhibition). Competition curves were then fit to a 4 parameter logistic equation including a variable slope factor to determine the IC50 (compound concentration causing a half-maximal inhibition of cell survival).

Compound	IC50 [1] [nM]	IC50 [2] [nM]	IC50 [3] [nM]	IC50 [4] [nM]	IC50 [5] [nM]
O=C(Nc1ccc(Oc2ccnc3cnc(N4CCN(C5COC5)CC4)cc23)cn1)c1cccn(-c2ccc(F)cc2)c1=O [Example 10.2, 1-(4-fluorophenyl)-N-[5-[[6-[4-(oxetan-3-yl)piperazin-1-yl]-1,7-naphthyridin-4-yl]oxy]-2-pyridyl]-2-oxo-pyridine-3-carboxamide]	14	17	2	20	394
CN1CCC(NC(=O)c2cc3c(Oc4ccc(NC(=O)c5cccn(-c6ccc(F)cc6)c5=O)nc4)ccnc3cn2)CC1 [Example 11, 4-[[6-[[1-(4-fluorophenyl)-2-oxo-pyridine-3-carbonyl]amino]-3-pyridyl]oxy]-N-(1-methyl-4-piperidyl)-1,7-naphthyridine-6-carboxamide]	32	52	4	77	251
CC(C)n1cc(C(=O)Nc2ccc(Oc3ccnc4cnc(N5CCNCC5)cc34)cc2)c(=O)n(-c2ccc(F)cc2)c1=O [Example 12.5, 3-(4-fluorophenyl)-1-isopropyl-2,4-dioxo-N-[4-[(6-piperazin-1-yl-1,7-naphthyridin-4-yl)oxy]phenyl]pyrimidine-5-carboxamide]	5	38	3	5	428
O=C(Nc1ccc(Oc2ccnc3cnc(N4CCNCC4)cc23)cc1)c1cccc(-c2ccc(F)cc2)[n+]1[O-] [Example 12.6, 6-(4-fluorophenyl)-1-oxido-N-[4-[(6-piperazin-1-yl-1,7-naphthyridin-4-yl)oxy]phenyl]pyridin-1-ium-2-carboxamide]	6	16	3	31	110
CN1CCC(c2cc3c(Oc4ccc(NC(=O)c5cccn(-c6ccc(F)cc6)c5=O)nc4)ccnc3cn2)CC1 [Example 16, 1-(4-Fluorophenyl)-N-[5-[[6-(1-methyl-4-piperidyl)-1,7-naphthyridin-4-yl]oxy]-2-pyridyl]-2-oxo-pyridine-3-carboxamide]	22	14	19	264	931
CC(C)(C)OC(=O)N1CCC(c2cc3c(Oc4ccc(NC(=O)c5cccn(-c6ccc(F)cc6)c5=O)nc4)ccnc3cn2)C1 (stereo not drawn) [Example 16.1, tert-butyl 3-[4-[[6-[[1-(4-fluorophenyl)-2-oxo-pyridine-3-carbonyl]amino]-3-pyridyl]oxy]-1,7-naphthyridin-6-yl]pyrrolidine-1-carboxylate]	76	70	4	27	1930
O=C(Nc1ccc(Oc2ccnc3cnc(C4=CCN(C5COC5)CC4)cc23)cn1)c1cccn(-c2ccc(F)cc2)c1=O [Example 16.2, 1-(4-fluorophenyl)-N-[5-[[6-[1-(oxetan-3-yl)-3,6-dihydro-2H-pyridin-4-yl]-1,7-naphthyridin-4-yl]oxy]-2-pyridyl]-2-oxo-pyridine-3-carboxamide]	15	14	3	18	144
CC(C)(C)OC(=O)N1CCC(c2cc3c(Oc4ccc(NC(=O)c5cccn(-c6ccc(F)cc6)c5=O)nc4)ccnc3cn2)CC1 [Example 16.4, tert-butyl 4-[4-[[6-[[1-(4-fluorophenyl)-2-oxo-pyridine-3-carbonyl]amino]-3-pyridyl]oxy]-1,7-naphthyridin-6-yl]piperidine-1-carboxylate]	154	195	13	282	> 2500
CN1CCC(c2cc3c(Oc4ccc(NC(=O)c5cccn(-c6ccc(F)cc6)c5=O)cc4)ccnc3cn2)CC1 [Example 17, 1-(4-fluorophenyl)-N-[4-[[6-(1-methyl-4-piperidyl)-1,7-naphthyridin-4-yl]oxy]phenyl]-2-oxo-pyridine-3-carboxamide]	31	25	4	240	186
